Measurements taken from patent publication US20220389007A1, “INHIBITORS OF HUMAN IMMUNODEFICIENCY VIRUS REPLICATION” (VIIV HEALTHCARE UK (No. 5) LIMITED, priority 2019, published 2022).

Experiments:
recombinant NL4-3 virus = experiment: HIV cell culture assay (antiviral activity, luciferase readout); type: cell-based; settings: Human immunodeficiency virus 1, NL43, MT2, MT-2 cells infected for 4-5 days with recombinant NL4-3 virus carrying Renilla luciferase
Protocol: HIV cell culture assay—MT-2 cells, 293T cells and the proviral DNA clone of NL4-3 virus were obtained from the NIH AIDS Research and Reference Reagent Program. MT-2 cells were propagated in RPMI 1640 media supplemented with 10% heat inactivated fetal bovine serum (FBS), […]. The 293T cells were propagated in DMEM media supplemented with 10% heat inactivated FBS, […]. A recombinant NL4-3 proviral clone, in which a section of the nef gene was replaced with the Renilla luciferase gene, was used to make the reference virus used in these studies. The recombinant virus was prepared through transfection of the recombinant NL4-3 proviral clone into 293T cells using Transit-293 Transfection Reagent from Mirus Bio LLC (Madison, WI). Supernatent was harvested after 2-3 days and the amount of virus present was titered in MT-2 cells using luciferase enzyme activity as a marker by measuring luciferase enzyme activity. Luciferase was quantitated using the EnduRen Live Cell Substrate from Promega (Madison, Wis.). Antiviral activities of compounds toward the recombinant virus were quantified by measuring luciferase activity in MT-2 cells infected for 4-5 days with the recombinant virus in the presence of serial dilutions of the compound.
The 50% effective concentration (EC50) was calculated by using the exponential form of the median effect equation where (Fa)=1/[1+(ED50/drug conc.)m] (Johnson VA, Byington RT. Infectivity Assay. In Techniques in HIV Research. ed. Aldovini A, Walker BD. 71-76. New York: Stockton Press. 1990). The 50% inhibitory concentration (EC50) was calculated by using the exponential form of the median effect equation where percent inhibition=1/[1+(EC50/drug concentration)m], where m is a parameter that reflects the slope of the concentration-response curve.

[1] = Compound cytotoxicity, XTT-based colorimetric assay; type: cell-based; settings: human; uninfected MT2 cells, day 4, XTT assay
Protocol: Compound cytotoxicity and the corresponding CC50 values were determined using the same protocol as described in the antiviral assay except that uninfected cells were used. Cytotoxicity was assessed on day 4 in uninfected MT2 cells by using a XTT (2,3-bis[2-Methoxy-4-nitro-5-sulfophenyl]-2H-tetrazolium-5-carboxyanilide inner salt)-based colorimetric assay (Sigma-Aldrich, St Louis, Mo.).

| Compound | EC50 (recombinant NL4-3 virus) [nM] | CC50 at 4 day [1] [nM] |
| --- | --- | --- |
| Cn1nc(NS(C)(=O)=O)c2c(Cl)ccc(-n3c([C@H](Cc4cc(F)cc(F)c4)NC(=O)Cn4nc(C(F)F)c5c4C(F)(F)[C@@H]4C[C@H]54)nc4nc(-c5cccc(Cl)n5)ccc4c3=O)c21 (atropisomer, axis not shown; (P)) [Example 50, N-((S)-1-((3P)-3-(4-chloro-1-methyl-3-(methylsulfonamido)-1H -indazol-7-yl)-7-(6-chloropyridin-2-yl)-4-oxo-3,4-dihydropyrido[2,3-d]pyrimidin-2-yl)-2-(3,5-difluorophenyl)ethyl)-2-((3bS,4aR)-3-(difluoromethyl)-5,5-difluoro-3b,4,4a,5-tetrahydro-1H-cyclopropa[3,4]cyclopenta[1,2-c]pyrazol-1-yl)acetamide] | 0.056 | > 100 |
| Cn1nc(NS(C)(=O)=O)c2c(Cl)ccc(-n3c([C@H](Cc4cc(F)cc(F)c4)NC(=O)Cn4nc(C(F)F)c5c4C(F)(F)[C@@H]4C[C@H]54)nc4nc(-c5ccncn5)ccc4c3=O)c21 (atropisomer, axis not shown; (P)) [Example 28, N-((S)-1-((3P)-3-(4-chloro-1-methyl-3-(methylsulfonamido)-1H-indazol-7-yl)-4-oxo-7-(pyrimidin-4-yl)-3,4-dihydropyrido[2,3-d]pyrimidin-2-yl)-2-(3,5-difluorophenyl)ethyl)-2-((3bS,4aR)-3-(difluoromethyl)-5,5-difluoro-3b,4,4a,5-tetrahydro-1H-cyclopropa[3,4]cyclopenta[1,2-c]pyrazol-1-yl)acetamide] | 0.04 | > 100 |
| Cn1nc(NS(C)(=O)=O)c2c(Cl)ccc(-n3c([C@H](Cc4cc(F)cc(F)c4)NC(=O)Cn4nc(C(F)F)c5c4C(F)(F)[C@@H]4C[C@H]54)nc4nc(-c5ccc(OC(F)(F)F)cc5)ccc4c3=O)c21 (atropisomer, axis not shown; (P)) [Example 26, N-((S)-1-((3P)-3-(4-chloro-1-methyl-3-(methylsulfonamido)-1H-indazol-7-yl)-4-oxo-7-(4-(trifluoromethoxy)phenyl)-3,4-dihydropyrido[2,3-d]pyrimidin-2-yl)-2-(3,5-difluorophenyl)ethyl)-2-((3bS,4aR)-3-(difluoromethyl)-5,5-difluoro-3b,4,4a,5-tetrahydro-1H-cyclopropa[3,4]cyclopenta[1,2-c]pyrazol-1-yl)acetamide] | 0.51 | > 100 |
| Cn1nc(NS(C)(=O)=O)c2c(Cl)ccc(-n3c([C@H](Cc4cc(F)cc(F)c4)NC(=O)Cn4nc(C(F)F)c5c4C(F)(F)[C@@H]4C[C@H]54)nc4nc(-c5csc(C(F)(F)F)n5)ccc4c3=O)c21 (atropisomer, axis not shown; (P)) [Example 4, N-((S)-1-((3P)-3-(4-chloro-1-methyl-3-(methylsulfonamido)-1H-indazol-7-yl)-4-oxo-7-(2-(trifluoromethyl)thiazol-4-yl)-3,4-dihydropyrido[2,3-d]pyrimidin-2-yl)-2-(3,5-difluorophenyl)ethyl)-2-((3bS,4aR)-3-(difluoromethyl)-5,5-difluoro-3b,4,4a,5-tetrahydro-1H-cyclopropa[3,4]cyclopenta[1,2-c]pyrazol-1-yl)acetamide] | 0.055 | > 100 |
| Cn1nc(NS(C)(=O)=O)c2c(Cl)ccc(-n3c([C@H](Cc4cc(F)cc(F)c4)NC(=O)Cn4nc(C(F)F)c5c4C(F)(F)[C@@H]4C[C@H]54)nc4nc(-c5ccn(CC(F)F)n5)ccc4c3=O)c21 (atropisomer, axis not shown; (P)) [Example 79, N-((S)-1-((3P)-3-(4-chloro-1-methyl-3-(methylsulfonamido)-1H-indazol-7-yl)-7-(1-(2,2-difluoroethyl)-1H-pyrazol-3-yl)-4-oxo-3,4-dihydropyrido[2,3-d]pyrimidin-2-yl)-2-(3,5-difluorophenyl)ethyl)-2-((3bS,4aR)-3-(difluoromethyl)-5,5-difluoro-3b,4,4a,5-tetrahydro-1H-cyclopropa[3,4]cyclopenta[1,2-c]pyrazol-1-yl)acetamide] | 0.047 | > 100 |
| Cn1nc(NS(C)(=O)=O)c2c(Cl)ccc(-n3c([C@H](Cc4cc(F)cc(F)c4)NC(=O)Cn4nc(C(F)F)c5c4C(F)(F)[C@@H]4C[C@H]54)nc4nc(-c5cnn(CC(F)(F)F)c5)ccc4c3=O)c21 (atropisomer, axis not shown; (P)) [Example 75, N-((S)-1-((3P)-3-(4-chloro-1-methyl-3-(methylsulfonamido)-1H-indazol-7-yl)-4-oxo-7-(1-(2,2,2-trifluoroethyl)-1H-pyrazol-4-yl)-3,4-dihydropyrido[2,3-d]pyrimidin-2-yl)-2-(3,5-difluorophenyl)ethyl)-2-((3bS,4aR)-3-(difluoromethyl)-5,5-difluoro-3b,4,4a,5-tetrahydro-1H-cyclopropa[3,4]cyclopenta[1,2-c]pyrazol-1-yl)acetamide] | 0.09 | > 100 |
| Cn1nc(NS(C)(=O)=O)c2c(Cl)ccc(-n3c([C@H](Cc4cc(F)cc(F)c4)NC(=O)Cn4nc(C(F)F)c5c4C(F)(F)[C@@H]4C[C@H]54)nc4nc(-c5cccc(OC(F)(F)F)c5)ccc4c3=O)c21 (atropisomer, axis not shown; (P)) [Example 21, N-((S)-1-((3P)-3-(4-chloro-1-methyl-3-(methylsulfonamido)-1H-indazol-7-yl)-4-oxo-7-(3-(trifluoromethoxy)phenyl)-3,4-dihydropyrido[2,3-d]pyrimidin-2-yl)-2-(3,5-difluorophenyl)ethyl)-2-((3bS,4aR)-3-(difluoromethyl)-5,5-difluoro-3b,4,4a,5-tetrahydro-1H-cyclopropa[3,4]cyclopenta[1,2-c]pyrazol-1-yl)acetamide] | 0.39 | > 100 |
| Cn1nccc1-c1ccc2c(=O)n(-c3ccc(Cl)c4c(NS(C)(=O)=O)nn(C)c34)c([C@H](Cc3cc(F)cc(F)c3)NC(=O)Cn3nc(C(F)F)c4c3C(F)(F)[C@@H]3C[C@H]43)nc2n1 (atropisomer, axis not shown; (P)) [Example 68, N-((S)-1-((3P)-3-(4-chloro-1-methyl-3-(methylsulfonamido)-1H-indazol-7-yl)-7-(1-methyl-1H-pyrazol-5-yl)-4-oxo-3,4-dihydropyrido[2,3-d]pyrimidin-2-yl)-2-(3,5-difluorophenyl)ethyl)-2-((3bS,4aR)-3-(difluoromethyl)-5,5-difluoro-3b,4,4a,5-tetrahydro-1H-cyclopropa[3,4]cyclopenta[1,2-c]pyrazol-1-yl)acetamide] | 0.049 | > 100 |
| Cn1nc(NS(C)(=O)=O)c2c(Cl)ccc(-n3c([C@H](Cc4cc(F)cc(F)c4)NC(=O)Cn4nc(C(F)F)c5c4C(F)(F)[C@@H]4C[C@H]54)nc4nc(-c5ccnn5C5CC5)ccc4c3=O)c21 (atropisomer, axis not shown; (P)) [Example 77, N-((S)-1-((3P)-3-(4-chloro-1-methyl-3-(methylsulfonamido)-1H-indazol-7-yl)-7-(1-cyclopropyl-1H-pyrazol-5-yl)-4-oxo-3,4-dihydropyrido[2,3-d]pyrimidin-2-yl)-2-(3,5-difluorophenyl)ethyl)-2-((3bS,4aR)-3-(difluoromethyl)-5,5-difluoro-3b,4,4a,5-tetrahydro-1H-cyclopropa[3,4]cyclopenta[1,2-c]pyrazol-1-yl)acetamide] | 0.073 | > 100 |
| Cn1nc(NS(C)(=O)=O)c2c(Cl)ccc(-n3c([C@H](Cc4cc(F)cc(F)c4)NC(=O)Cn4nc(C(F)F)c5c4C(F)(F)[C@@H]4C[C@H]54)nc4nc(-c5cnccn5)ccc4c3=O)c21 (atropisomer, axis not shown; (P)) [Example 8, N-((S)-1-((3P)-3-(4-chloro-1-methyl-3-(methylsulfonamido)-1H-indazol-7-yl)-4-oxo-7-(pyrazin-2-yl)-3,4-dihydropyrido[2,3-d]pyrimidin-2-yl)-2-(3,5-difluorophenyl)ethyl)-2-((3bS,4aR)-3-(difluoromethyl)-5,5-difluoro-3b,4,4a,5-tetrahydro-1H-cyclopropa[3,4]cyclopenta[1,2-c]pyrazol-1-yl)acetamide] | 0.019 | > 100 |
